How the values were obtained:
[1] = tested on: human bladder carcinoma cell line RT112/84; assay: Bladder carcinoma cell line growth inhibition assay, RT112/84; assay type: cell-based; conditions: RT112/84, 72 h, 3 days incubation, CellTiter-Glo 2.0
Protocol: In this assay, the growth inhibitory activity of Compound (1) in human bladder carcinoma cell lines RT4, RT112/84, and UM-UC-3 was measured. RT4 and RT112/84 cells were maintained in a RPMI-1640 (FUJIFILM Wako Pure Chemical Corporation, 189-02025) medium containing 10% fetal bovine serum (FBS: SIGMA Life Science, 172012-500ML), and penicillin and streptomycin (FUJIFILM Wako Pure Chemical Corporation, 168-23191) in a 5% CO2 incubator (37° C.). UM-UC-3 cells were maintained in an E-MEM (FUJIFILM Wako Pure Chemical Corporation, 051-07615) medium containing 10% FBS, 1 mM Sodium Pyruvate (FUJIFILM Wako Pure Chemical Corporation, 190-14881), and penicillin and streptomycin in a 5% CO2 incubator (37° C.). To each well of a 96 well plate (Coming, 3904), 90 μL of each cell suspension adjusted to a concentration of 5.55×10^3 cells/mL (RT4 or UM-UC-3) or 3.33×10^4 cells/mL (RT112/84) with the culture medium was added, and the cells were incubated overnight in a 5% CO2 incubator (37° C.). On the next day, 10 μL of Compound (1) in three-fold dilution series suspended in the culture medium was added to each well, and the resultant was incubated for 3 days in a 5% CO2incubator (37° C.). Then, cell viability was determined by CellTiter-Glo® 2.0 Assay (Promega Corporation, G9243) with ARVO-X4 Multimode Plate Reader (Perkin-Elmer, Wellesley, MA). […]

[2] = tested on: FaDu-Luc subcutaneous xenograft; assay: FaDu s.c. xenograft model in combination with radiation; assay type: in vivo, nude mice
Protocol: Luciferase-transduced FaDu-Luc cells were established by retrovirus-mediated gene transfer. […]. Then, helper-free recombinant retroviruses were produced by transfecting the above retroviral expression vector together with pGP and pE-Ampho plasmids (Takara Bio; Shiga, Japan), into 293T cells (ATCC; Manassas, USA). Next, FaDu cells were infected with the recombinant retroviruses, and were cultured for two weeks in the presence of puromycin (2 μg/mL). The infected cells were selected from a polyclonal proliferative population of the culture.
A luciferase-transduced human SCCHN cell line FaDu-Luc, which had been cultured in an RPMI-1640 medium containing 10% FBS, and penicillin and streptomycin, was adjusted to a concentration of 5×10^7 cells/mL with Hank's Balanced Salt Solution to prepare a cell suspension. […] Thirteen days after the cell inoculation, the tumor volume was analyzed using bioluminescence signal from FaDu-Luc cells. […] The bioluminescence signal was monitored using the IVIS […] series (PerkinElmer, Waltham, MA), consisting of a highly sensitive, cooled chargecoupled device camera. […] Data were analyzed using total photon flux emission (photons/second) in the ROIs. The total photon flux emission was calculated in accordance with the following calculation formulae: […]

[3] = tested on: OSC-19 subcutaneous xenograft; assay: Antitumor activity against OSC-19 subcutaneous xenograft as monotherapy; assay type: in vivo, nude mice; conditions: Q7Dx2
Protocol: A human squamous cell carcinoma of the head and neck (SCCHN) cell line OSC-19, which had been cultured in an DMEM/Ham's F-12 (1:1) medium containing 10% FBS, and penicillin and streptomycin, was adjusted to a concentration of 1×10^8 cells/ml with PBS to prepare a cell suspension, and the suspension was mixed with Matrigel™ (BD Bioscience, #366237) in a ratio of 1:1 to prepare a cell suspension in a concentration of 5×10^7 cell/mL. The cell suspension was inoculated in a volume of 100 μL into a subcutaneous part of a right flank of nude mice, 5 weeks of ages (CAnN.Cg-Foxnlnu/CrlCrlj, female, Charles River Laboratories Japan, Inc.). Six days after cell inoculation, the shortest diameter and the longest diameter of a tumor in each mouse were measured by using an electronic digital caliper (Digimatic™ caliper, Mitutoyo Corporation), so as to calculate the volume of the tumor in accordance with the following calculation formulae: […]
On the basis of the volumes of tumors obtained on the first day of administration, the mice were grouped such that averages of the tumor volumes were substantially equal among the groups. The experiment was conducted on groups each consisting of 6 mice. Test compound was dissolved in saline and intravenously administered at doses from 0.06 mg/kg to 0.18 mg/kg once a week for 2 weeks (Q7Dx2 schedule).

C=C1C[C@@H]2CC[C@@]34C[C@H]5O[C@H]6[C@@H](O3)[C@H]3O[C@H](CC[C@@H]3O[C@H]6C5O4)CC(=O)O[C@@H]3[C@@H](C)[C@@H]4O[C@@H]5C[C@]6(C[C@@H]7O[C@]8(C[C@H](C)[C@@H]9O[C@H](CN)[C@H](O)C[C@@H]9O8)C[C@H](C)[C@@H]7O6)O[C@@H]5C[C@@H]4O[C@H]3C[C@H]3O[C@@H](CC[C@@H]1O2)C[C@@H](C)C3=C (stereo in doubt) [Compound (1)] was tested, and the IC50 [1] was 0.0497 nM, the “Tumor Regression (%)” value ([2]; 0.09 mg/kg i.v. day 1 and 8 + radiation 18 Gy day 4 and 11) was 97% and the “Tumor Regression (%)” value ([2]; 0.09 mg/kg i.v. day 1 and 8, without radiation) was 0%. The “Tumor Regression (%)” value ([3]; 0.06 mg/kg i.v.) was 59% and the “Tumor Regression (%)” value ([3]; 0.18 mg/kg i.v.) was 90%.
